Patent US20130053392A1, “CARBONIC ANHYDRASE INHIBITORS” (priority 2010, published 2013)
Entries after “also recorded” stand apart in the source; their conditions may differ.

What was measured:
[1] = test system: EV/2 CA IX expressing cells (HT-29); assay: Clonogenic survival after irradiation, EV/2 cells; format: cell-based, human; details: S4 33 μM 23 h
Description: (§1) Cells were incubated with S4 1 h after the start of the anoxic/normoxic exposure, during 23 h. […] After incubation, cells were irradiated on ice (MCN 225 industrial X-ray tube (Philips, Eindhoven, NL) at 225 kV and 10 mA under the respective oxygen concentrations using different doses (Normoxia: 0, 2, 4, 6, and 8 Gy; Anoxia: 0, 4, 8, 12 and 16 Gy). After irradiation, cells were washed, trypsinized and plated for the clonogenic survival assay and incubated under standard culture conditions until colonies were formed (14 days). Colonies were fixed and stained with 4% methylene blue in 70% ethanol. Plating efficiency was determined by counting colonies consisting of >50 cells and correcting for the number of cells seeded.

[2] = test system: HT29 colon carcinoma cells; assay: Mouse xenograft model, HT29 colon carcinoma; format: in vivo, mice
[3] = test system: 94/1 CA IX knock down cells (HT-29); assay: Clonogenic survival after irradiation, 94/1 cells; format: cell-based, human
Description: as §1

FaDU head and neck cells = assay: FaDU spheroid clonogenicity assay with doxorubicin or radiation; format: cell-based; details: listed as S4
Description: These studies were undertaken using tumour cells grown into 3-D spheroid cultures that have a natural oxygen gradient. Spheroids of FaDU head and neck cells were generated and treated for 24 h with S4 or vehicle alone; doxorubicin alone or in combination with S4; and S4 or vehicle plus 10 Gy radiotherapy given at the end of the 24 h exposure. Spheroids were treated with trypsin to generate single cell suspensions and plated at various dilutions. Clonogenecity was then recorded per spheroid.
Spheroids were generated by the “liquid overlay technique”. […] The coating prevents the cells from forming monolayers and gives rise of spheroid growth.
The spheroids were grown in a CO2-incubator for 5-7 days. Thereafter, the spheroids were collected and grown in a spinner flask for an additional 5-7 days until they reached a diameter of ˜500-750 μm (10%-0.1% O2 gradient in spheroid).
Spheroids were pooled for the following treatments: • 1. Vehicle for 24 hours • 2. […] Doxorubicin (10 μM) for 24 h • 4. Vehicle for 24 hours followed by 10 Gy radiotherapy • 5.
Directly thereafter, spheroids were digested to single cells using trypsin/EDTA and the cells seeded at a range of concentration in culture plates (clonogenicity assay).
After about a week the cells were stained with methylene blue and the number of colonies counted.

MDA231-EGFP cells = assay: Orthotopic MDA231-EGFP mammary fat pad tumour and lung clonogen (metastasis) model; format: in vivo, mice; details: 10 mg/kg, 5 days on, 2 days off
Description: 16 mice were implanted with 0.1 ml of a 5×10^7/ml suspension of MDA231-EGFP cells into the mammary fat pad of anaesthetized mice. The cells were prepared in a 1:1 mix of Matrigel: serum-free RMPI.
Mouse condition was monitored daily and tumour volumes recorded at least 3× per week.
Once tumours reached approximately 100 mm^3, they were randomised in to the following treatment groups:
Group 1: 8 mice implanted with MDA231-EGFP cells received vehicle administered in a “5 days on, 2 days” off schedule (ie Mon-Fri dosing each week).
Group 2: 8 mice implanted with MDA231-EGFP cells received CA-IX inhibitor S4 administered at 10 mg/kg dose in a “5 days on, 2 days” off schedule (ie Mon-Fri dosing each week).
Treatment was continued until primary tumours reached a designated endpoint volume of approx 1000 mm^3.
Mouse health and condition was monitored throughout and weights recorded up to 3 times per week.
Before sacrifice Pimonidazole at 0.2 ml of 10 mg/ml solution i/p (2 h before) and 0.1 ml of a 6 mg/ml Hoechst solution (iv) (1 minute before) were administered. Tumour and lungs were rapidly removed for processing.
Clonogens were assessed in lungs using a clonogenic assay. About a quarter of the total lung tissue was taken and weighed. […] Clones were then stained with bromophenol blue and counted, calculating the number per mg of tissue following correction for the dilution.

[4] = Proliferation/viability assays; format: cell-based; details: 33 μM
Description: CA IX inhibition, either using a genetic approach (knock down) or pharmacological (S4) results in a sensitization to irradiation. Genetically or pharmacologically, this sensitization occurs to a similar extent. Pharmacological testing was performed at 33 μM, a concentration selected based on no-toxicity under normoxic conditions based on proliferation/viability assays.

[5] = prior art compound (Winum et al); cited from earlier work

Row | SMILES | sensitization to irradiation, 24 h anoxia ([1]; anoxia, 8, 12 and 16 Gy, FIG. 18) | sensitization to irradiation, normoxic exposure ([1]; normoxia, 0-8 Gy) | volume of the tumour versus control ([2]; HT29 xenograft, FIG. 3) | reduction of the tumor growth ([2]; highest dosage of CA inhibitor, HT29 xenograft in nude CD1 mice) [%] | sensitization to irradiation, normoxic exposure ([3]; S4 33 μM 23 h, normoxia) | effect on radiosensitivity of knock down cells ([3]; S4 33 μM pretreatment) | clonogenic survival, combination with radiation (FaDU head and neck cells; S4 33 μM 24 h plus 10 Gy radiotherapy) | clonogenic survival, combination with doxorubicin (FaDU head and neck cells; S4 33 μM plus doxorubicin 10 μM, 24 h) | clonogenicity per spheroid, inhibitor alone (FaDU head and neck cells; S4 alone (33 μM), 24 h, FIG. 9) | number of metastatic MDA-231 clonogens (colonies per gram of lung tissue) versus vehicle (MDA231-EGFP cells; FIG. 5) | tumour volume against time versus vehicle (MDA231-EGFP cells; orthotopic MDA-231 tumours, FIG. 4) | toxicity under normoxic conditions [4] | stability in solution [5]
1 | Cc1cc(C)cc(NC(=O)Nc2ccc(OS(N)(=O)=O)cc2)c1 [Compound 3p, 4-[(3,5-dimethylphenyl)ureido]phenyl sulfamate] | a sensitization to irradiation was observed | no sensitization to irradiation was demonstrated | significant reduction in the volume of the tumour | 30 | no sensitization to irradiation was demonstrated | had no effect on the radiosensitivity | reduced colongenic survival compared with either agent alone; also recorded: significant reduction in colony formation per spheroid | reduced colongenic survival compared with either agent alone; also recorded: significant reduction in colony formation per spheroid | little effect on growth of cells isolated from the spheroids; also recorded: little effect on cell growth | significantly fewer metastatic clonogens | little or no effect on the growth of the orthotopic MDA-231 tumours | no-toxicity | 
2 | NS(=O)(=O)Oc1ccc(Cl)cc1 [4-chlorophenyl sulphamate] |  |  |  |  |  |  |  |  |  |  |  |  | relatively unstable in solution
